In US20230181498A1, “NEW USE OF N,N-BIS-2-MERCAPTOETHYL ISOPHTHALAMIDE” (EMERAMED LIMITED, priority 2020, published 2023):

Tests used:
Assay type in all cases: in vivo, human
[1] = tested on: common cold-like and/or flu-like illnesses; test: Treatment of Patient I (case report, daily NBMI); conditions: man, up to 300 mg/day NBMI almost daily for approximately 14 years; self-reported
Protocol: A person residing in the USA reported taking doses of up to 300 mg/day NBMI almost daily since 2006.
Before taking NBMI, the person regularly became sick with such illnesses due to their work as a university professor and being an avid outdoorsman.

viral infections [2] = test: Treatment of Patient with ME/CFS I (case report)
Protocol: A person residing in Sweden and diagnosed with myalgic encephalomyelitis/chronic fatigue syndrome (ME/CFS), reported that they started to use NBMI extensively in 2010 starting with 600 mg/day for 1.5 months, then 400 mg/day for 1.5 months and then 300 mg/day for three months.
Due to ME/CFS, the person was often inflicted with viral infections.

[3] = tested on: common cold-like and/or flu-like symptoms; test: Treatment of Patient II (case report, daily NBMI); conditions: self-reported
Source text: A person residing in the USA, the spouse of Patient I, reported that they were often inflicted with common cold-like and/or flu-like symptoms due to their profession as a registered nurse.

viral infections [4] = test: Treatment of Patient with ME/CFS II (case report); conditions: person with ME/CFS and long history of viral infections, 300 mg/day NBMI from 2010; self-reported
Source text: The person was often sick and had, therefore, a poor quality of life.

[5] = person with ME/CFS, 2010, 600 then 400 then 300 mg/day, self-reported

Question: For `O=C(NCCS)c1cccc(C(=O)NCCS)c1` [NBMI, N,N-bis-2-mercaptoethyl isophthalamide], which “occurrence of common cold-like and/or flu-like illnesses” value [1] is on record?
Answer: Its value is “has not become unwell with common cold-like and/or flu-like illnesses”.

Question: What about the “frequency and severity of infections on restarting NBMI” value (viral infections [2]; person with ME/CFS, 300 mg/day again from late 2011, self-reported) of the same compound?
Answer: Its value is “got fewer and less severe”.

Question: And the “frequency of viral infections” value (viral infections [2]; person with ME/CFS, 2010, 600 mg/day for 1.5 months, then 400 mg/day for 1.5 months, then 300 mg/day for three months, self-reported)?
Answer: Its value is “viral infections became fewer”.

Question: What about the “intensity of viral infections (pain, headache, fatigue, time bedridden)” value (viral infections [2]; [5]) of the same compound?
Answer: The value was “intensity was less severe”.

Question: What about the “recovery time from viral infections” value (viral infections [2]; [5]) of the same compound?
Answer: The value was “recovery time was quicker”.

Question: What about the “frequency and severity of viral infections after halting the treatment” value (viral infections [2]; person with ME/CFS, after halting NBMI in summer 2010, self-reported) of the same compound?
Answer: The value was “viral infections became more frequent and more severe”.

Question: And the “severity and duration of virus infection when NBMI is taken during infection” value (viral infections [2]; person with ME/CFS, occasional NBMI when inflicted with a virus infection, compared with not taking NBMI, patient's impression)?
Answer: Its value is “less severe and shorter in duration”.

Question: And the “common cold-like and/or flu-like symptoms, recent years” value ([3]; person, NBMI daily, over the past 5 years)?
Answer: Its value is “has not experienced any such symptoms”.

Question: And the “flu-like symptoms after starting NBMI” value ([3]; registered nurse, NBMI daily since 2010)?
Answer: The value was “great decrease in having flu-like symptoms”.

Question: What about the “occurrence of viral infections” value (viral infections [4]) of the same compound?
Answer: Its value is “no longer suffered from viral infections”.
